The test system of data set [1] is indomethacin-induced ulcers (glandular stomach) of rats. Put plainly: therapeutic effect against indomethacin ulcers of rats (method of Somogi et al.). In kind it is in vivo, male rats of Wistar strain. The note with it: indomethacin 25 mg/kg, 100 mg/kg p.o., 7 hours. The procedure:
The complexes prepared in Examples 1 and 2, referred to as ATM and AEGCg, respectively, hereinbelow, were tested for the therapeutic activity against gastric ulcers of rats such as pylorus-ligated or indomethacin-induced ulcers.
Separately, according to the method of Somogi, et al. disclosed in J. Pharm. Pharmac., volume 21, page 122 (1969), a group of light male rats of Wistar strain each having a body weight of about 200 g were used to test the therapeutic effect of the complexes against indomethacin ulcers. Each of the rats belonging to the test group was, after 24 hours of fasting, orally administered with ATM or AEGCg suspended in a 5% solution of gum arabic followed by oral administration of indomethacin in a dose of 25 mg/kg body weight after 30 minutes from the administration of the ATM or AEGCg. After 7 hours abstinence from food and water, the rat was killed and the stomach was excised and incised along the greater curvature to measure the length of the ulcers appearing on the glandular stomach. The overall length of the ulcers is given in Table 2 below as the ulcer index. The control group was treated in the same manner as above excepting ATM or AEGCg in the gum arabic solution.

The nature of the next data set: acute oral toxicity. The arrangement: species or system male mice of ddY strain. The conditions noted are these: mouse, in vivo, male ddY mice, fasted overnight, read-out: 50% lethal dose (LD50). An excerpt: Lastly, ATM and AEGCg were subjected to the test of acute toxicity by male mice of ddY strain each having a body weight of 20 to 25 g. After fasting overnight, the mice were orally administered with ATM or AEGCg with varied doses to determine the 50% lethal dose (LD50).

Data set [2] deals with pylorus-ligated ulcers (forestomach) of rats. Kind of data set: therapeutic activity against pylorus-ligated gastric ulcers of rats (method of Shay et al.). The conditions noted are these: 100 mg/kg p.o., 18 hours. It counts as in vivo, male rats of Wistar strain. The procedure:
After fasting 48 hours each rat was put to etherization and the stomach was ligated at the pyloric part. Immediately after the ligation, the rat was orally administered with a suspension of the ATM or AEGCg in a 5% solution of gum arabic. The control group was fed only the solution of gum arabic without either ATM or AEGCg. After 18 hours of abstinence from food and water, the rat was killed and the stomach was excised and incised along the greater curvature to examine the condition of ulcer appearing on the forestomach.

Data set [3] concerns gastric juice / peptic activity in rats. Kind of data set: antipeptic activity or effect on secretion of gastric juice in pylorus-ligated rats (method of Shay et al.). In kind it is in vivo, male rats of Wistar strain. The conditions noted are these: 200 mg/kg p.o., 6 hours. The procedure:
Further, the complexes were subjected to the test for the antipeptic activity or the effect on the secretion of gastric juice in rats according to the method of Shay, et al. Thus, a group of eight male rats of Wistar strain each having a body weight of about 200 g were used as the test animals. After 24 hours of fasting, the stomach of each rat was ligated at the pyloric part under etherization. Immediately after the ligation, the rat was orally administered with ATM or AEGCg suspended in a 5% solution of gum arabic. After 6 hours of abstinence from food and water, the rat was again etherized to take out the stomach as ligated at the cardiac end. The gastric juice in the stomach was put to centrifugal separation to give a supernatant of which the volume, overall acidity and overall peptic activity were measured to give the results shown in Table 3.

In the case of `CN/C(=N/CCSCc1nc[nH]c1C)NC#N` [Cimetidine], the “Ulcer index (mm)” value in data set [1] (overall length of ulcers) is 13.3 ± 2.8 mm. The “Suppression (%)” value in data set [1] (ulcer index vs control) is 62.4%.
In the case of `O=C(O[C@@H]1Cc2c(O)cc(O)cc2O[C@@H]1c1cc(O)c(O)c(O)c1)c1cc(O)c(O)c(O)c1` [EGCg, (-)-epigallocatechin gallate], the median lethal dose (LD50) in “acute oral toxicity” was determined as 2500 mg/kg.
Turning to Sucralfate, the Ulcer index in data set [2] is 2.86 ± 0.40. Moreover, the “Suppression (%)” value in data set [2] (ulcer index vs control) was 41.5%. Moreover, in data set [3], the “Overall acidity (mEq/liter)” value was 85.4 ± 3.8 mEq/liter, the “Peptic activity (mg tyrosine)” value was 585.3 ± 68.0 mg tyrosine and the “Volume of gastric juice (ml/rat)” value amounted to 7.98 ± 0.39 ml/rat. The “Suppression (%)” value in data set [3] (peptic activity vs control) came to 35.0%.

A word on the LD50: it is the dose at which mortality reaches 50%.

(Values after patent publication US4913909A, “Complex of tea-leaf extract and active aluminum hydroxide” (Mitsui Norin Co., Ltd., priority 1986, dated 1990).)
